In test [1] the target is CB2. The conditions noted are these: reported value of lead molecule; cited from earlier work.
Test [2] deals with CB1. The conditions noted are these: reported value of lead molecule; cited from earlier work.
Test [3] concerns the target T1, human CB2 (Homo sapiens, UniProt P34972).
T1 construct: host or cells: CHO cells (stably transfected), membrane homogenates
The test is described as follows: radioligand inhibition binding assay, [^3H]WIN55.212-2, membranes of CHO cells stably transfected with human CB2. As for the experimental part: Non-specific binding was determined using 10 µM WIN55.212-2. The individual IC50 values were determined by non-linear curve fitting using GraphPad Prism software (version 3.0, GraphPhad, San Diego, CA, USA), and the corresponding Ki values calculated using the Cheng–Prusoff equation [44]. […] Additionally, the binding affinities towards the CB1 receptor were investigated for compounds 6 and 8 by using [^3H]CP55.40 as competitive radioligand.

In test [4] the target is human CB1 receptors (Homo sapiens, UniProt P21554). The test can be described thus: CB1 binding assay with [^3H]CP55.40 as competitive radioligand. The following applies: no displacement of radioligand up to this concentration. As for the experimental part:
Non-specific binding was determined using 10 µM WIN55.212-2. The individual IC50 values were determined by non-linear curve fitting using GraphPad Prism software (version 3.0, GraphPhad, San Diego, CA, USA), and the corresponding Ki values calculated using the Cheng–Prusoff equation [44]. […] Additionally, the binding affinities towards the CB1 receptor were investigated for compounds 6 and 8 by using [^3H]CP55.40 as competitive radioligand. None of the two derivatives could displace [^3H]CP55.40 from the human CB1 receptors up to a concentration of 100 µM. Thus, within this series of fluoro-substituted compounds, the N-alkyl chain of compound 8 is most suitable to obtain high affinity binding at the CB2 receptor, combined with an excellent selectivity against the CB1 receptor subtype.

Here are results for four compounds from article PMC6155603, “Synthesis and Preliminary Biological Evaluation of Indol-3-yl-oxoacetamides as Potent Cannabinoid Receptor Type 2 Ligands” (Molecules : A Journal of Synthetic Chemistry and Natural …, 2017).

T1 sequence (P34972 whole entry): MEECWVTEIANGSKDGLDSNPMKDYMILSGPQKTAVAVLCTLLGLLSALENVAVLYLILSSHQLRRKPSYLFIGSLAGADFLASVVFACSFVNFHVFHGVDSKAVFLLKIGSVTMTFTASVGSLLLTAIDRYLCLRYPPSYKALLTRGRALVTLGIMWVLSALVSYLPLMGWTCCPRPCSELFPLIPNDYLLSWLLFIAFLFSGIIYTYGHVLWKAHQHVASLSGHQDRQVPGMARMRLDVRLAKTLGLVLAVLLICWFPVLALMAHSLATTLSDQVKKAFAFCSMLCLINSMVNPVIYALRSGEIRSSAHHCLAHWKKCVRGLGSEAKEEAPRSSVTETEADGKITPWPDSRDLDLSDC
human CB1 receptors, sequence (P21554 whole entry): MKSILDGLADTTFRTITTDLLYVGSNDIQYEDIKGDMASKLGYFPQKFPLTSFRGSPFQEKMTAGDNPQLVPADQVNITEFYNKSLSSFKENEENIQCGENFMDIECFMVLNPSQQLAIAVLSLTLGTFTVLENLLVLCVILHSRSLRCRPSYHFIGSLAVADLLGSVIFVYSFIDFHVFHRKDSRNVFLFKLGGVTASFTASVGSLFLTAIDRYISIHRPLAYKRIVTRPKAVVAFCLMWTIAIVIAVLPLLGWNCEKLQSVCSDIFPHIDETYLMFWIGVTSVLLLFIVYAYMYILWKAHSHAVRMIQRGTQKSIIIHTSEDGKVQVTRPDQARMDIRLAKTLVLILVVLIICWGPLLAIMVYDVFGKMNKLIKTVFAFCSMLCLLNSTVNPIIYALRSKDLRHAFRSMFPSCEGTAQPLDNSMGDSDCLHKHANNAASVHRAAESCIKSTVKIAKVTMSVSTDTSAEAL

On to `CCCCCn1cc(C(=O)C(=O)NC23CC4CC(CC(C4)C2)C3)c2cc(-c3ccco3)ccc21` [compound 5, N-(Adamantan-1-yl)-2-(5-(furan-2-yl)-1-pentyl-1H-indol-3-yl)-2-oxoacetamide], for which the Ki – broadly, a dissociation constant, usually derived from enzyme kinetics or from competition with a known ligand – in test [1] is 0.00037 µM; in test [2], 0.345 µM; in test [3] it was 0.0085 µM.

Consider `O=C(NC12CC3CC(CC(C3)C1)C2)C(=O)c1cn(CCOCCOCCF)c2ccc(-c3ccco3)cc12` [compound 6, N-(Adamantan-1-yl)-2-(1-(2-(2-(2-fluoroethoxy)ethoxy)ethyl)-5-(furan-2-yl)-1H-indol-3-yl)-2-oxoacetamide], for which the affinity in test [3] corresponds to a Ki of 0.0273 µM. Moreover, in test [4], the “concentration up to which [^3H]CP55.40 was not displaced from human CB1 receptors” value is greater than 100 µM.

In test [3], `COCCn1cc(C(=O)C(=O)NC23CC4CC(CC(C4)C2)C3)c2cc(-c3ccco3)ccc21` [compound 7, N-(Adamantan-1-yl)-2-(5-(furan-2-yl)-1-(2-methoxyethyl)-1H-indol-3-yl)-2-oxoacetamide] displayed an inhibitory constant (Ki) of 0.0161 µM.

`O=C(NC12CC3CC(CC(C3)C1)C2)C(=O)c1cn(CCOCCF)c2ccc(-c3ccco3)cc12` [compound 8, N-(Adamantan-1-yl)-2-(1-(2-(2-fluoroethoxy)ethyl)-5-(furan-2-yl)-1H-indol-3-yl)-2-oxoacetamide] registered a Ki in test [3] of 0.0062 µM. Also, the “concentration up to which [^3H]CP55.40 was not displaced from human CB1 receptors” value in test [4] is recorded as greater than 100 µM.
